Data taken from paper PMC5863496, “Mesobuthus Venom-Derived Antimicrobial Peptides Possess Intrinsic Multifunctionality and Differential Potential as Drugs” (Frontiers in Microbiology, 2018).
Ends that are not written are not given here.

Experiments:
[1] = tested on: penicillin-resistant Staphylococcus aureus P1383; assay: Inhibition-zone assay (CL); format: cell-based; conditions: concentration used in killing kinetics and membrane permeation
Description: (§1) The antimicrobial activity of seven peptides, including MeuFSPL-1, MeuFSPL-2, Marmelittin, Melittin, Meucin-22, Marcin-22, and MeuTXKβ1, was evaluated by the inhibition-zone assay previously described in our studies (Hultmark, [1998]; Zhu et al., [2012a]; Zhu and Gao, [2014]). Temperatures used were 30 or 37°C for bacteria or 28°C for fungi. Media used were Luria-Bertani (LB) Broth (10 g tryptone, 5 g yeast extract, and 5 g NaCl in 1 l of water) or Nutrient Broth (10 g peptone, 5 g beef extract powder, and 5 g NaCl in 1 l of water) or GYM(Isp2) (4 g yeast extract, 10 g malt extract, 4 g glucose, 2 g CaCO3 in 1 l of water) for bacteria or Potato Dextrose Broth (200 g patato and 20 g glucose in 1 l of water) for fungi. To make plates, 10 μl of microbial culture (~2 × 10^6 bacterial cells or fungal spores/ml) were mixed in 6 ml of medium containing 0.8% agar and poured into Peri dishes of 9.0 cm diameter. Wells with a diameter of 2 mm were punched into the medium, filled with 2 μl of sample each well. In this assay, three different doses of peptides were applied to three independent wells in one standard bacterial plate. After incubation overnight, inhibition zones were measured and used to calculate lethal concentrations (CL), a concentration just sufficient to inhibit bacterial growth (Hultmark, [1998]; Gao et al., [2009]). CL values are calculated from a plot of d^2 against log n, where d is the diameter (in cm) and n is the amount of sample applied in the well (in nmol). The plot is linear and thus CL can be calculated from the slope (k) and the intercept (m) of this plot. The formula used here is CL = 2.93/ak10^m/k, where “a” is the thickness of the bacterial plate and “CL” is in μM.

Serum stability = format: in vitro ADME; conditions: fresh mouse serum, 37°C, read-out inhibition zone on S. aureus PRSA P1383 plates
Description: (§2) To assess serum stability, peptides were dissolved in H2O or fresh mouse serum for the indicated times at 37°C and their residual activity was measured by the inhibition-zone assay (Hultmark, [1998]).

S. aureus PRSA P1383 = assay: Killing kinetics; format: cell-based, Staphylococcus aureus; conditions: 5x CL (20 μg/ml)
Description: The in vitro killing curve for MeuTXKβ1 was determined against the bacterium S. aureus PRSA P1383. For the assay, a single fresh colony was inoculated into LB (Luria-Bertani) medium (10 g tryptone, 5 g yeast extract, and 5 g NaCl in 1 l of H2O) and incubated at 37°C until OD600 of 0.2. The initial concentration used was 4 × 10^7 cells/ml. Samples for colony counts were taken at time 0, 5, 10, 15, 20, 30, and 60 min after addition of peptides. Results are given as colony-forming units (CFUs) per milliliter.

Stability in H2O = format: physicochemical; conditions: 37°C, read-out inhibition zone on S. aureus PRSA P1383 plates
Description: as §2

[2] = tested on: penicillin-sensitive Staphylococcus epidermidis P1111; assay: Inhibition-zone assay (CL); format: cell-based; conditions: PSSE P1111, N.A. = no activity at 0.8 nmol peptide each well
Description: as §1

[3] = tested on: Bacillus subtilis CGMCC 1.2428; assay: Inhibition-zone assay (CL); format: cell-based; conditions: BS CGMCC 1.2428, N.A. = no activity at 0.8 nmol peptide each well
Description: as §1

[4] = tested on: Streptomyces griseus NBRC 13350; assay: Inhibition-zone assay (CL); format: cell-based; conditions: SG NBRC 13350, N.A. = no activity at 0.8 nmol peptide each well
Description: as §1

[5] = tested on: Streptococcus salivarius ATCC 1.2498; assay: Inhibition-zone assay (CL); format: cell-based; conditions: SSAL ATCC 1.2498, N.A. = no activity at 0.8 nmol peptide each well
Description: as §1

[6] = tested on: Stenotrophomonas maltophilia CGMCC 1.1788; assay: Inhibition-zone assay (CL); format: cell-based; conditions: SMAL CGMCC 1.1788, N.A. = no activity at 0.8 nmol peptide each well
Description: as §1

[7] = tested on: Staphylococcus aureus J685; assay: Inhibition-zone assay (CL); format: cell-based; conditions: SA J685, N.A. = no activity at 0.8 nmol peptide each well
Description: as §1

[8] = tested on: Staphylococcus aureus J710; assay: Inhibition-zone assay (CL); format: cell-based; conditions: SA J710, N.A. = no activity at 0.8 nmol peptide each well
Description: as §1

[9] = tested on: Staphylococcus warneri ATCC 1.2824; assay: Inhibition-zone assay (CL); format: cell-based; conditions: SW ATCC 1.2824, N.A. = no activity at 0.8 nmol peptide each well
Description: as §1

[10] = tested on: Streptococcus mutans ATCC 1.2499; assay: Inhibition-zone assay (CL); format: cell-based; conditions: SM ATCC 1.2499, N.A. = no activity at 0.8 nmol peptide each well
Description: as §1

[11] = tested on: Staphylococcus aureus J708; assay: Inhibition-zone assay (CL); format: cell-based; conditions: SA J708, N.A. = no activity at 0.8 nmol peptide each well
Description: as §1

[12] = tested on: Staphylococcus aureus J700; assay: Inhibition-zone assay (CL); format: cell-based; conditions: SA J700, N.A. = no activity at 0.8 nmol peptide each well
Description: as §1

[13] = tested on: Streptococcus sanguinis ATCC 1.2497; assay: Inhibition-zone assay (CL); format: cell-based; conditions: SSAN ATCC 1.2497, N.A. = no activity at 0.8 nmol peptide each well
Description: as §1

[14] = tested on: methicillin-resistant coagulase-negative Staphylococcus P1369; assay: Inhibition-zone assay (CL); format: cell-based; conditions: MRCNS P1369, N.A. = no activity at 0.8 nmol peptide each well
Description: as §1

[15] = tested on: Staphylococcus aureus J706; assay: Inhibition-zone assay (CL); format: cell-based; conditions: SA J706, N.A. = no activity at 0.8 nmol peptide each well
Description: as §1

[16] = tested on: Staphylococcus aureus J698; assay: Inhibition-zone assay (CL); format: cell-based; conditions: SA J698, N.A. = no activity at 0.8 nmol peptide each well
Description: as §1

[17] = tested on: methicillin-sensitive Staphylococcus aureus CGMCC 1.89; assay: Inhibition-zone assay (CL); format: cell-based; conditions: MSSA CGMCC 1.89, N.A. = no activity at 0.8 nmol peptide each well
Description: as §1

[18] = tested on: Streptomyces scabiei CGMCC 4.1765; assay: Inhibition-zone assay (CL); format: cell-based; conditions: SSCA CGMCC 4.1765, N.A. = no activity at 0.8 nmol peptide each well
Description: as §1

[19] = tested on: penicillin-resistant Staphylococcus epidermidis P1389; assay: Inhibition-zone assay (CL); format: cell-based; conditions: PRSE P1389, N.A. = no activity at 0.8 nmol peptide each well
Description: as §1

[20] = 24 h, three independent experiments

Compound: CN[C@H](CC(C)C)C(=O)N[C@H]1C(=O)N[C@@H](CC(N)=O)C(=O)N[C@H]2C(=O)N[C@H]3C(=O)N[C@H](C(=O)N[C@H](C(=O)O)c4cc(O)cc(O)c4-c4cc3ccc4O)[C@H](O)c3ccc(c(Cl)c3)Oc3cc2cc(c3O[C@@H]2O[C@H](CO)[C@@H](O)[C@H](O)[C@H]2O[C@H]2C[C@](C)(N)[C@H](O)[C@H](C)O2)Oc2ccc(cc2Cl)[C@H]1O [vancomycin]
- 5x CL for P1383 [1]: 20 µg/mL
- residual activity after incubation in mouse serum (Serum stability; 6 h): remained its full activity
- residual activity after incubation in mouse serum (Serum stability; [20]): completely lose
- killing rate compared with MeuTXKβ1 (S. aureus PRSA P1383): slower killing rate
- residual activity after incubation in H2O (Stability in H2O; 6 h): remained its full activity
- residual activity after incubation in H2O (Stability in H2O; [20]): completely lose

Compound: IFGAIAGLLKNIF-NH2 [MUC-13, reference compound]
- Lethal concentration (CL) [2]: 10.24 µM
- Lethal concentration (CL) [3]: 6.24 µM
- Lethal concentration (CL) [4]: 53.31 µM
- Lethal concentration (CL) [5]: 7.54 µM
- Lethal concentration (CL) [6]: 4.89 µM
- Lethal concentration (CL) [7]: 10.16 µM
- Lethal concentration (CL) [8]: 7.10 µM
- Lethal concentration (CL) [9]: 6.24 µM
- Lethal concentration (CL) [10]: 10.24 µM
- Lethal concentration (CL) [11]: 7.54 µM
- Lethal concentration (CL) [12]: 7.54 µM
- Lethal concentration (CL) [13]: 6.24 µM
- Lethal concentration (CL) [14]: 33.80 µM
- Lethal concentration (CL) [15]: 5.67 µM
- Lethal concentration (CL) [16]: 7.54 µM
- Lethal concentration (CL) [17]: 10.24 µM
- Lethal concentration (CL) [18]: 15.07 µM
- Lethal concentration (CL) [19]: 24.06 µM
